# Results from patent US9687497B1, “Salts and polymorphs of cyclic boronic acid ester derivatives and therapeutic uses thereof” (Rempex Pharmaceuticals, Inc., priority 2014, dated 2017).
# Read-outs that look alike come from different tables or passages of the source.
# Experiments:
# pKa of Compound 1 = type: physicochemical
# [1] = Chemical stability of Compound 1 in solution; type: physicochemical; settings: solutions having pH values between 2 and 8
# [2] = Solubility of Compound 1 in salt-screening solvents; type: physicochemical; settings: for solubility: organic solvent or mixture, read-out: solubility of Compound 1 (S)
# Description: Nine solvent systems were evaluated in the Salt-screening study. The solvents were selected based on the solubility data accumulated during preceding studies. In addition, solvents represented a diverse set of polarities, dielectric constants, dipole moments, and hydrogen-bond donor/acceptor attributes to promote crystallization of salts.
# [3] = counterion itself; cited from earlier work
# [4] = HPLC analysis of salt-screening products for decomposition; type: physicochemical; settings: solvent system THF and Water (95:5 vol %)
# Source text: (§1) All samples were inspected visually and by Polarized light microscopy at every step listed above to check any formation of crystalline products. Any crystalline products obtained from these procedures were isolated by vacuum filtration and, where possible, analyzed by FT-Raman. Unique crystalline products were subjected to further analyses by PXRD, DSC, TGA-IR, and HPLC, as necessary.
# [5] = Salt-screening study (crystalline form screening of Compound 1 with counterions); type: physicochemical; settings: for formation of pure and stable crystalline salt form, overall salt screen: approximately 360 screening experiments, FT-Raman and PXRD
# Description: During the salt-screening step, 60 combinations of […] counterions with nine solvent systems were tested.
# The screening studies were conducted in two stages.
# In Stage 1, the samples involving counterion Nos. 1-6 listed in Table 1 were paired with solvent Nos. 1-6 listed in Table 2, whereas samples involving counterion Nos. 7 and 8 were paired with solvent Nos. 1-5 and 8.
# In Stage 2, a few samples that remained undissolved and amorphous in the first stage were 1) subjected to rapid solvent evaporation under vacuum; 2) dissolved in solvent Nos. 7-9 listed in Table 2; 3) cooled to 5° C. and held at 5° C. for 72 hrs; and 4) allowed to evaporate at ambient conditions over 3-7 days.
# as §1
# [6] = Open-air handling and stability of isolated potassium salt; type: physicochemical
# Description: The potassium salt was subsequently reproduced at 50 mg and 300 mg scales using seeding, which facilitated crystallization of the several hours of amorphous intermediate phase. […] Once a free-flowing powder was isolated, the powder was stable in open-air for at least 7 days.
smiles,measurement,setting,value
"O=C(O)C[C@@H]1CC[C@H](NC(=O)Cc2cccs2)B(O)O1 [Compound 1, 2-((3R,6S)-2-hydroxy-3-(2-(thiophen-2-yl)acetamido)-1,2 oxaborinan-6-yl)acetic acid]",pKa,pKa of Compound 1,3.92
same,chemical stability of boronic acid moiety in solution,[1],chemically stable
same,solubility,"[2]; 1,4-dioxane",1000 to 10000 µg/mL
same,solubility,[2]; MTBE,< 1000 µg/mL
same,solubility,[2]; THEF Water (95:5% vol.),> 1000 µg/mL
same,solubility of Compound 1,[2]; Water,Low solubility of Compound 1
same,solubility,[2]; acetone,< 1000 µg/mL
same,solubility,[2]; acetonitrile (ACN),< 1000 µg/mL
same,solubility,[2]; ethyl acetate,< 1000 µg/mL
same,solubility,[2]; ACN: Water (90:10% vol.),< 20000 µg/mL
CC(C)(C)[O-].[K+] [Potassium t-butoxide],pKa3,[3],~14
C[N+](C)(C)CCO.[OH-] [Choline hydroxide],decomposition in screening products by HPLC,[4],significant decomposition
same,pKa3,[3],>11
[K+] [potassium],decomposition in screening products by HPLC,[4],significant decomposition
[Ca+2].[OH-].[OH-] [Calcium hydroxide],"formation of pure and stable crystalline salt form, overall salt screen",[5],no pure and stable crystalline salt was formed
same,decomposition in screening products by HPLC,[4],significant decomposition
[Mg+2].[OH-].[OH-] [Magnesium hydroxide],"formation of pure and stable crystalline salt form, overall salt screen",[5],no pure and stable crystalline salt was formed
same,decomposition in screening products by HPLC,[4],significant decomposition
"O=C([O-])C[C@@H]1CC[C@H](NC(=O)Cc2cccs2)B(O)O1.[K+] [Compound 1A, potassium salt of 2-((3R,6S)-2-hydroxy-3-(2-(thiophen-2-yl)acetamido)-1,2-oxaborinan-6-yl)acetic acid]","formation of pure and stable crystalline salt form, overall salt screen",[5],yielded a pure and stable crystalline form
same,"formation of pure and stable crystalline salt form, overall salt screen",[5]; listed as potassium salt of compound 1,yielded crystalline products
same,propensity for polymorphism,[5]; only one crystalline form observed in the study,low propensity for polymorphism
same,deliquescence on isolation,"[6]; isolated in open air, reduced or eliminated under nitrogen blanket",may undergo deliquescence
same,stability of isolated free-flowing powder in open-air,[6]; open air,at least 7 days
